As usually defined, the Ki is the dissociation constant of the complex between target and ligand, obtained from inhibition or displacement.

In the assay the target is Stromelysin (Homo sapiens, UniProt P08254). Put plainly: MMP (stromelysin) inhibition, particle concentration fluorescence assay. Conditions: in vitro; fluorescein/biotin substrate; MMP buffer pH 7.5; room temperature; 15 minutes preincubation, 1-3 hours; read-out: Stromelysin Ki (MMP Inhibition Constants). It is filed as biochemical.
Sequence of Stromelysin (P08254 100-477): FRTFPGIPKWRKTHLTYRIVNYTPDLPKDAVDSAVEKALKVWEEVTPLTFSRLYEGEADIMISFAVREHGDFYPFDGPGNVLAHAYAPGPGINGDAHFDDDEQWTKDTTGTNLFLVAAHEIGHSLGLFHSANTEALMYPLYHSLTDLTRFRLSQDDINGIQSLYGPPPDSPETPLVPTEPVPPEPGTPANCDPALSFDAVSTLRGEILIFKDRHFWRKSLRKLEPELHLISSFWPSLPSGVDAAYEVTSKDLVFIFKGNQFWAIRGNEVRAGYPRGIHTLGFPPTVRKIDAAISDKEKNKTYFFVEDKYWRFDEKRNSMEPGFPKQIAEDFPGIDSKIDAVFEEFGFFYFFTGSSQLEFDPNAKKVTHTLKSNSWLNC
Method: Inhibitory activity is evaluated in one or more of the MMP enzymes (stromelysin, gelatinase, and collagenase) in vitro using particle concentration fluorescence assay. An inhibitor binds to MMP enzymes which prevents the degradation of a substrate by stromelysin, gelatinase, or collagenase. The substrate has attached to it a fluorescein and a biotin moiety. The intact substrate then binds to an avidin-coated particle via the biotin moiety. Once the particle is washed and dried, a fluorescent signal is generated since the fluorescent group is attached to the particle. Without an inhibitor present, the substrate is degraded by MMP enzymes and the fluorescein group is removed, therefore, no fluorescent signal can be detected. Testing compounds are dissolved in DMSO to the desired concentration, then the solutions are diluted to 1:5 with MMP buffer (50 mM Tris-HCl, pH 7.5; 150 mM NaCl; 0.02% NaN3). Serial two-fold dilutions of each compound are prepared. A concentrated, activated enzyme solution is transferred into each plate of the testing compounds, and the mixture is incubated at room temperature for 15 minutes. […] At this point, the substrate mixture is mixed with 0.1% avidin-coated polystyrene particles. After 15 minutes, the fluorescence values are measured following filtration and washing of the beads. Ki values are then calculated.
Take `CNC(=O)[C@@H](NC(=O)Nc1n[nH]c(=S)s1)[C@@H](C)OCc1ccccc1` [Example 66, 2-[[[(4,5-Dihydro-5-thioxo-1,3,4-thiadiazol-2-yl)amino]carbonyl]amino]-N-methyl-3-(phenylmethoxy)-(2S)-butanamide]: the Ki amounted to 760 nM. On to `COC(=O)[C@H](COC(C)(C)C)NC(=O)Nc1n[nH]c(=S)s1` [Example 67, N-[[(4,5-Dihydro-5-thioxo-1,3,4-thiadiazol-2-yl)amino]carbonyl]-O-(1,1-dimethylethoxy)-L-serine methyl ester], for which the Ki amounted to 6700 nM. With `CNC(=O)[C@@H](NC(=O)Nc1n[nH]c(=S)s1)[C@@H](C)OC(C)(C)C` [Example 75, 2-[[[(4,5-Dihydro-5-thioxo-1,3,4-thiadiazol-2-yl)amino]carbonyl]amino]-3-(1,1-dimethylethoxy)-N-methyl-(S)-butanamide], the Ki was 670 nM.

Values taken from US5847148A, “Thiadiazole derivatives useful for the treatment of diseases related to connective tissue degradation” (Pharmacia & Upjohn Company, priority 1997, dated 1998).
